How the values were obtained:
[1] = Tmax in BALB/c mouse at 40 mg/kg, iv measured upto 1440 mins by LC-MS/MS analysis; assay type: ADME, organism-based; details: in vivo, 24 h
[2] = In vivo inhibition of LMP2 activity in BALB/c mouse brain at 40 mg/kg, iv measured after 2 hrs relative to control; assay type: functional
[3] = Drug uptake in BALB/c mouse lung at 40 mg/kg, iv measured after 2 hrs; assay type: ADME, organism-based; details: in vivo
[4] = In vivo inhibition of LMP2 activity in BALB/c mouse brain at 40 mg/kg, iv measured after 24 hrs relative to control; assay type: functional
[5] = Toxicity in BALB/c mouse assessed as tremor at 100 mg/kg, po; assay type: organism-based; details: in vivo
[6] = Tmax in BALB/c mouse plasma at 40 mg/kg, iv measured upto 1440 mins by LC-MS/MS analysis; assay type: ADME, organism-based
[7] = Toxicity in BALB/c mouse assessed as diarrhea at 40 mg/kg, iv; assay type: organism-based; details: in vivo
[8] = Toxicity in BALB/c mouse assessed as effect on weight loss at 100 mg/kg, po; assay type: organism-based; details: in vivo
[9] = Toxicity in BALB/c mouse assessed as paralysis at 40 mg/kg, iv; assay type: organism-based; details: in vivo
[10] = Unbound clearance in human plasma; assay type: ADME, cell-free
[11] = Metabolic stability in human liver microsomes assessed as half life at 2 uM measured upto 60 mins by LC-MS/MS analysis; assay type: ADME, Microsome; details: 1 h
[12] = Apparent permeability of the compound across apical to basolateral side in human Caco-2 cells expressing Pgp/BCRP at 10 uM incubated for 120 mins by LC-MS/MS analysis; assay type: ADME, cell-based; details: caco-2, 2 h
[13] = In vivo inhibition of LMP2 activity in BALB/c mouse brain at 150 mg/kg, po measured after 6 hrs post dose relative to control; assay type: functional
[14] = Drug uptake in BALB/c mouse liver at 40 mg/kg, iv measured after 2 hrs; assay type: ADME, organism-based; details: in vivo
[15] = Toxicity in BALB/c mouse assessed as tremor at 40 mg/kg, iv; assay type: organism-based; details: in vivo
[16] = test system: HMC3; experiment: Cytotoxicity against human HMC3 cells assessed as reduction in cell viability at 30 to 100 uM incubated for 96 hrs by CellTiter 96 Aqueous One Solution Cell Proliferation Assay; assay type: toxicity, cell-based; details: hmc3, 96 h, dose 30-100 µM
[17] = Volume of distribution at steady state in BALB/c mouse at 40 mg/kg, iv measured upto 1440 mins by LC-MS/MS analysis; assay type: ADME, organism-based; details: in vivo, 24 h
[18] = Toxicity in BALB/c mouse at 100 mg/kg, iv measured for 72 hrs; assay type: organism-based; details: in vivo

## CC(C)C[C@H](NC(=O)[C@@H]1COCCCCCC(=O)N2C[C@H](F)C[C@H]2C(=O)N1)C(=O)[C@@]1(C)CO1
[1]
  Tmax: 4.98 min
[2]
  inhibition in vivo at 40 mg/kg: 56%
[3]
  Drug uptake: Not Active
[4]
  inhibition in vivo at 40 mg/kg: 39%
[5]
  Activity: Non-Toxic
[6]
  Tmax: 15 min
[7]
  Activity: Non-Toxic
[8]
  Activity: Non-Toxic
[9]
  Activity: Non-Toxic
[10]
  CL free: 72 mL/min/kg
[11]
  t1/2: 38.4 min
[12]
  Papp: 6.62 10^-6 cm/s
[13]
  inhibition in vivo at 150 mg/kg: 21%
[14]
  Drug uptake: Active
[15]
  Activity: Non-Toxic
[16]
  Activity: Non-Toxic
[17]
  Vdss: 2572 mL/kg
[18]
  Activity: Non-Toxic
